Measured values as given in paper PMC9097457 (The Journal of Biological Chemistry, 2022).
Counter-ions that a name gives are not always drawn. Blank lines part the entries; values can stand above or below the compound they belong to.

Assays:
[1] = target: T1, deoxyguanosine kinase (dGK) (Rattus norvegicus, UniProt A0A0G2K478); assay: Pilot study: effect of 100 μM dG/dA nucleoside analogs on [3H]-dG or [3H]-dA phosphorylation in isolated mitochondria; format: biochemical; details: 100 μM analog; [3H]-dG 0.5 μM in liver, kidney, heart, brain mitochondria; [3H]-dA in liver mitochondria; 2 h; + EHNA 5 μM, I-H 2 μM
T1 sequence (A0A0G2K478 with tags, fused parts or gaps): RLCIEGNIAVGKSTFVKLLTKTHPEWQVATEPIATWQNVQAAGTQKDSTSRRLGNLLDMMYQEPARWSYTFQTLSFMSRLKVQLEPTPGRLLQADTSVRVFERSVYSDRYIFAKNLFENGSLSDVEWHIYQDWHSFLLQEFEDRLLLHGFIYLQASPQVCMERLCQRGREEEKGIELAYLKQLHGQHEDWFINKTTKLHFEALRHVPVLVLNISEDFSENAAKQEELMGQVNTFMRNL
Procedure: Immucillin-H (I-H) (2 μM) and EHNA (5 μM) were added to the incubation mixture to prevent the breakdown of substrate by purine nucleoside phosphorylase (PNP) and adenosine deaminase (ADA) activity, respectively.
(§1) To measure and compare phosphorylation and kinetics, a stable substrate concentration was necessary and EHNA (5 μM) ([50]) and I-H (2.0 μM) ([49]) were added to all mitochondrial incubations. […] The mitochondria were incubated in vitro for up to 2 h at 37 °C in a shaker bath. At the end of the incubation, reactions were terminated by addition of 10% TCA to an equal volume of incubation mixture (175 μl) and spun in a microcentrifuge to remove precipitates. The supernatant was neutralized with AG 11 A8 resin and filtered through a 0.2-μM nylon syringe filter. The neutralized and filtered supernatants were analyzed by ultra high pressure liquid chromatography (UPLC). Radioactivity was determined from aliquots of each sample and processed through a Beckman Coulter multipurpose liquid scintillation counter (model 6500).
(§2) Extent of phosphorylation was measured and analyzed by UPLC (Agilent 1290) with a reverse-phase C18 column (Zorbax Eclipse Plus C18; 3.0 × 150 mm, 1.8 micron) coupled with an inline diode array to detect UV signal at 254 nm and to an inline liquid scintillation counter (β-Ram) to quantitate radioactivity.
(§3) The radioactivity in each of these peaks was quantitated and totaled to provide the total amount of radioactivity in the phosphorylated products for each labeled precursor. This total was divided by the specific radioactivity of the precursor and expressed as pmol/mg protein/hr. The Kms were calculated from Lineweaver–Burk plots 1/Vo=Km/Vmax[S]+1/Vmax

[2] = tested on: heart mitochondria; assay: Conversion of [3H]-dGMP to [3H]-dGTP in isolated heart mitochondria; format: biochemical, rat
Procedure: (§4) Thus, we were interested in determining if the dGTP and dATP phosphorylation pathway in isolated mitochondria functioned similarly.
(§5) [^3H]-dGMP (1 μM) or [^3H]-dAMP (1 μM) was incubated in heart mitochondria as described for Figure 1 for the times shown, and their conversion to [^3H]-dGTP and [^3H]-dATP, respectively, determined in the presence and absence of Ap5A ([…]), a competitive inhibitor of adenylate kinase. Data are shown as a box plot of two independent experiments. The thickness of the lines indicates the spread of the duplicates. Ap5A, P1,P5-di(adenosine-5) pentaphosphate pentasodium salt.
as §1

[3] = tested on: adenylate kinase; assay: Conversion of [3H]-dAMP to [3H]-dATP in isolated heart mitochondria; format: biochemical, rat
Procedure: as §4, §5
as §1, with “The supernatant was neutralized with AG 11 A8 resin and filtered through a 0.2-μM nylon syringe filter.” left out

[4] = target: T1, deoxyguanosine kinase (dGK); assay: Inhibition of [3H]-dA phosphorylation by competing deoxynucleosides in liver mitochondria; format: biochemical; details: IC50 values at 1 μM substrate
Procedure: as §1, §3

[5] = tested on: isolated rat heart; assay: Phosphorylation of [3H]-ETV, [3H]-dG and [3H]-dA in the isolated perfused rat heart (Langendorff)
Procedure: The phosphorylation of [^3H]-dG, [^3H]-dA, and [^3H]-ETV in isolated mitochondria depends on the activity of the mitochondrial dGK. To determine the degree of phosphorylation in a whole tissue, which would include the activity of the cytosolic dCK, we utilized an isolated rat heart Langendorff retrograde perfusion model. The breakdown and phosphorylation of [^3H]-ETV, [^3H]-dG, and [^3H]-dA (0.5 μM each) was measured in the perfusates and in the hearts after 60 min of perfusion (Fig. 9, A and B). […] However, the heart was still able to take up and maintain a small amount of dG to generate 0.18 ± 0.05 pmol/mg wet heart of phosphorylated dG during the 60-min perfusion. […] Despite the loss of [^3H]-dA from the perfusate, the heart took up and maintained enough dA to produce 0.48 ± 0.08 pmol/mg wet heart of phosphorylated [^3H]-dA products at 60 min (Fig. 9B). […] Note that [^3H]-dG and [^3H]-dG catabolites equilibrate rapidly between the perfusion buffer and the heart, while the phosphorylated forms of [^3H]-dG are retained solely in the heart tissue.
Figure 9 [^3H]-ETV and [^3H]-dG phosphorylation in a perfused rat heart. Rat hearts were removed and perfused using the Langendorff method for 1 h as described in Experimental procedures with 0.5 μM [^3H]-ETV, 0.5 μM [^3H]-dG), or 0.5 μM [^3H]-dA. […] A, the amount of exogenous [^3H]-parent compound in the perfusate as a function of time, plotted as a box plot of three independent experiments. See text for details. B, the amount of phosphorylated [^3H]-ETV, [^3H]-dG, or [^3H]-dA in the heart tissue after 60 min of perfusion with additions as noted in (A). See text for details.
Rat hearts were perfused by Langendorff retrograde perfusion apparatus with [^3H]-dG, [^3H]-dA, or [^3H]-ETV for 60 min under the conditions previously described ([25], [26], [51]). Perfused hearts were snap frozen into wafers by clamping the heart in liquid nitrogen, and the frozen tissue wafers were stored in −80 °C until processed as previously described for ([24]) UPLC analysis.

[6] = target: T1, deoxyguanosine kinase (dGK); assay: Kinetic analysis of [3H]-dG and [3H]-ETV phosphorylation and cross inhibition in heart mitochondria; format: biochemical; details: 40 μM ETV, data of Figure 4
Procedure: as §1, §3

[7] = target: T1, deoxyguanosine kinase (dGK); assay: Tissue-specific phosphorylation of [3H]-dG, [3H]-dA and [3H]-ETV in isolated mitochondria; format: biochemical; details: heart mitochondria
Procedure: As noted in the Experimental procedures, these were added together to determine total phosphorylation.
as §1, §2, §3

[8] = target: T2, adenosine deaminase (ADA) (Rattus norvegicus, UniProt Q920P6)
T2 sequence (Q920P6 1-352): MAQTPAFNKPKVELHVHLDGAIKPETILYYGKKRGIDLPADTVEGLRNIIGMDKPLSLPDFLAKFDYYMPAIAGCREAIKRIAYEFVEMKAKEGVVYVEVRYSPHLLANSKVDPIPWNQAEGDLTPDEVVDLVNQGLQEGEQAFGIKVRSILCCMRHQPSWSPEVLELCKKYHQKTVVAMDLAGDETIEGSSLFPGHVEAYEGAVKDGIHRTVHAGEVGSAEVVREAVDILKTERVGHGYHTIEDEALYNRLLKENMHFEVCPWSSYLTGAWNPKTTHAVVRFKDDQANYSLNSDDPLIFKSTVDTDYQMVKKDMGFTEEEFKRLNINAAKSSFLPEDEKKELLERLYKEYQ

[9] = tested on: isolated rat heart; assay: Breakdown of the [3H]-parent compound in the perfusate of the isolated perfused rat heart; format: in vitro ADME
Procedure: To determine the degree of phosphorylation in a whole tissue, which would include the activity of the cytosolic dCK, we utilized an isolated rat heart Langendorff retrograde perfusion model.
See text for details. […] See text for details.
Perfused hearts were snap frozen into wafers by clamping the heart in liquid nitrogen, and the frozen tissue wafers were stored in −80 °C until processed as previously described for ([24]) UPLC analysis.

[10] = target: T3, purine nucleoside phosphorylase (PNP) (Rattus norvegicus, UniProt P85973); details: 2.0 μM, kidney mitochondria, 60 min
T3 sequence (P85973 1-289): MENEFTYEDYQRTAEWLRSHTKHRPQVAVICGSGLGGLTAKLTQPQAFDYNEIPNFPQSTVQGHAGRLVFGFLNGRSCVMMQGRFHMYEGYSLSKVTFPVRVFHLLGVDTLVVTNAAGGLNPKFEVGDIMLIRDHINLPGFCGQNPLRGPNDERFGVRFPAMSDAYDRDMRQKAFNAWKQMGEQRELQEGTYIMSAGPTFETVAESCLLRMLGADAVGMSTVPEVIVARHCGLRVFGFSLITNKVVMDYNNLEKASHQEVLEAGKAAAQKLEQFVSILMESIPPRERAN

SMILES: Nc1nc(=O)c2ncn([C@@H]3C[C@H](CO)[C@H]3CO)c2[nH]1 [lobucavir]
- inhibition of the phosphorylation of dA and dG [1]: ETV was shown to be the only dG/dA analog of the eight tested that showed significant inhibition

SMILES: C[C@H](Cn1cnc2c(N)ncnc21)OCP(=O)(O)O [tenofovir]
- inhibition of the phosphorylation of dA and dG [1]: ETV was shown to be the only dG/dA analog of the eight tested that showed significant inhibition

SMILES: Nc1nc2c(ncn2[C@H]2C[C@H](O)[C@@H](COP(=O)(O)O)O2)c(=O)[nH]1 [dGMP]
- plateau, complete conversion of [3H]-dGMP to [3H]-dGTP ([2]; 1 μM): 123 ± 1 pmol/mg protein
- conversion to [3H]-dGTP at the 30-min time point ([2]; 1 μM precursor): 106 ± 4 pmol/mg protein
- conversion of dGMP to dGTP faster than conversion of dG to dGTP ([2]; 30 min): 4.6 times

SMILES: Nc1nc2c(ncn2CCC(CO)CO)c(=O)[nH]1 [penciclovir]
- inhibition of the phosphorylation of dA and dG [1]: ETV was shown to be the only dG/dA analog of the eight tested that showed significant inhibition

SMILES: Nc1ncnc2c1ncn2CCOCP(=O)(O)O [adefovir]
- inhibition of the phosphorylation of dA and dG [1]: ETV was shown to be the only dG/dA analog of the eight tested that showed significant inhibition

- effect on conversion of [3H]-dAMP to [3H]-dATP ([3]; Ap5A 40 μM): inhibited
SMILES: Nc1ncnc2c1ncn2[C@@H]1O[C@H](COP(=O)([O-])OP(=O)([O-])OP(=O)([O-])OP(=O)([O-])OP(=O)([O-])OC[C@H]2O[C@@H](n3cnc4c(N)ncnc43)[C@H](O)[C@@H]2O)[C@@H](O)[C@H]1O.[Na+].[Na+].[Na+].[Na+].[Na+] [Ap5A, P1,P5-di(adenosine-5) pentaphosphate pentasodium salt]
- effect on phosphorylation of dGMP ([2]; Ap5A 40 μM): not inhibited

SMILES: CC(C)OC(=O)OCOP(=O)(CO[C@H](C)Cn1cnc2c(N)ncnc21)OCOC(=O)OC(C)C.O=C(O)/C=C/C(=O)O [TDF, tenofovir disproxil fumarate]
- inhibition of the phosphorylation of dA and dG [1]: ETV was shown to be the only dG/dA analog of the eight tested that showed significant inhibition

- inhibition of dA phosphorylation more potent than ETV inhibition of dG phosphorylation [4]: 500 fold
- rate of [3H]-dG phosphorylation to [3H]-dGTP in the presence of inhibitor [6]: 12.4 ± 2.0 pmol/mg protein/hr
SMILES: C=C1[C@H](CO)[C@@H](O)C[C@@H]1n1cnc2c(=O)[nH]c(N)nc21 [ETV, entecavir]
- effect on conversion of [3H]-dGMP to [3H]-dGTP ([2]; ETV 40 μM): no effect
- phosphorylated product in heart ([5]; 0.5 μM labeled compound alone, 60-min perfusion): 0.25 ± 0.05 pmol/mg wet heart
- inhibition of [3H]-dG phosphorylation ([5]; 100 μM unlabeled ETV added to [3H]-dG + I-H, 60-min perfusion): 82.0 ± 0.7%
- effect on [3H]-dA phosphorylation ([5]; ETV 100 μM added to the perfusate): did not appear to inhibit

SMILES: CCCCCCC(C(C)O)n1cnc2c(N)ncnc21.Cl (stereo not drawn) [EHNA, erythro-9-(2-Hydroxy-3-nonyl)-adenine hydrochloride]
- effect on [3H]-dA or [3H]-dG phosphorylation [7]: no effect
- effect on conversion of [3H]-dA to breakdown products ([8]; EHNA 5 μM, 60 min): completely prevented this conversion

SMILES: Nc1nc2c(ncn2[C@H]2CC[C@@H](CO)O2)c(=O)[nH]1 [dideoxyguanosine]
- inhibition of the phosphorylation of dA and dG [1]: ETV was shown to be the only dG/dA analog of the eight tested that showed significant inhibition

SMILES: Nc1nc(O)c2ncn(COC(CO)CO)c2n1 [ganciclovir]
- inhibition of the phosphorylation of dA and dG [1]: ETV was shown to be the only dG/dA analog of the eight tested that showed significant inhibition

- time to complete conversion to [3H]-dATP ([3]; 1 μM): ≤ 10 min
SMILES: Nc1ncnc2c1ncn2[C@H]1C[C@H](O)[C@@H](COP(=O)(O)O)O1 [dAMP]

- parent compound in the perfusate by 60 min ([9]; 0.5 μM [3H]-dA, EHNA added): complete loss
- parent compound remaining in the perfusate by 3 min ([9]; 0.5 μM [3H]-dA, EHNA added): 47.5%
- parent compound in the perfusate by 3 min ([9]; 0.5 μM [3H]-dA, in the presence of I-H): completely lost
- stability in heart mitochondria ([8]; heart mitochondria, initial studies): stable
- conversion of [3H]-dA to breakdown products ([8]; mitochondria isolated from kidney, 60 min, no inhibitor): 28%
SMILES: Nc1ncnc2c1ncn2[C@H]1C[C@H](O)[C@@H](CO)O1 [dA, deoxyadenosine]
- phosphorylated [3H]-dA products in heart ([5]; 0.5 μM [3H]-dA, I-H and EHNA in the perfusate, 60 min): 0.48 ± 0.08 pmol/mg wet heart

SMILES: O=c1[nH]cnc2c([C@@H]3N[C@H](CO)[C@@H](O)[C@H]3O)c[nH]c12 [I-H, forodesine hydrochloride]
- effect on breakdown of dG in the perfusate ([9]; I-H 2 μM): prevented most of the breakdown
- effect on conversion of [3H]-dG to breakdown products [10]: completely prevented this conversion
- effect on [3H]-dA or [3H]-dG phosphorylation [7]: no effect
- effect on [3H]-dA breakdown ([8]; Immucillin-H 2.0 μM, 60 min): no effect
